Test results reported in patent US20250127778A1, “CANCER IMMUNOTHERAPY COMPOSITION CONTAINING INTERACTION INHIBITOR OF STING AND TRIM29 AS ACTIVE INGREDIENT” (SPARK BIOPHARMA, INC, priority 2021, published 2025).

What was measured:
[1] = system: phosphorylation of downstream signaling proteins TBK1 and IRF3; test: Western blotting of STING sub-immune signaling pathway activation; format: cell-based; details: in combination with cGAMP; FIG. 7
Method: First, the A431 cell line was seeded in a transparent 12-well plate and cultured for one day. Thereafter, the cells were treated with the compounds of Formulas 1 to 6, respectively, and then cultured for additional 24 hours. Finally, after supernatant culture medium of the cells was removed, the remaining supernatant was diluted and removed with PBS (phosphate buffer saline) to prepare a Western blotting sample. All procedures for preparing Western blotting sample were performed at 4° C. […] The protein concentration of the supernatant was measured by using the Micro BCA™ protein assay kit (ThermoFisher) according to the protocol of the manufacturer. […] The treated samples were analyzed by SDS-PAGE, then transferred to a PVDF membrane, and cultured in a TBST solution containing 4% BSA for 30 minutes. […] Finally, after four TBST washing processes, the solution was developed with an ECL (enhanced chemiluminescence) prime solution of Amersham, the chemical luminescence signal was measured by using ChemiDoc MP of Bio-Rad Laboratories, Inc., the obtained results were quantified by using the ImageLab 6.0 program, and the results were plotted by using the Prism 8.0 program. […]

STING = target: T1, STING (Mus musculus, UniProt Q3TBT3); test: Flow cytometry of intracellular STING in Raw264.7 cells; format: cell-based; design: endogenous in cells; host or cells: Raw264.7; details: 24 hours, FIG. 15
T1 sequence (Q3TBT3 1-378): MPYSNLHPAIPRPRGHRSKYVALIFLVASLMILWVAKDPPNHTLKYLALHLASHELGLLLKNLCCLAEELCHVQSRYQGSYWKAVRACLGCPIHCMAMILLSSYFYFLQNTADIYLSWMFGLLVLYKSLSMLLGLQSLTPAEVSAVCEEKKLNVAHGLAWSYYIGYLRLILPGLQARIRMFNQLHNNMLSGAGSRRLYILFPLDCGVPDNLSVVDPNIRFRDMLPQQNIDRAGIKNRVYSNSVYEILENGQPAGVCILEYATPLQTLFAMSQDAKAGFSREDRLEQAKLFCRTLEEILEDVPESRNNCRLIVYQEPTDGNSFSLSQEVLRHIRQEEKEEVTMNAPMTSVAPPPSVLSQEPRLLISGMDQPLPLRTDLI
Method: It was verified whether the oxopiperazine derivatives increased the efficacy of STING agonists and other cancer immunotherapy, including immune checkpoint inhibitors. First, it was verified through flow cytometry and Western blotting whether the oxopiperazine derivatives increase the amount of STING.
To measure the intracellular amount of STING through flow cytometry, Raw264.7 cells were seeded in a transparent 6-well plate and cultured for one day. Thereafter, the cells were treated with a solution, in which the compound of Formula 1 is diluted in a culture medium without FBS, and cultured for 24 hours. […] After centrifugation of the collected cells, the supernatant was removed, the cells were redistributed in FACS solution (Hank's balanced salt solution (HBSS) including 2% horse serum and 0.05% NaN3), and the number of cells was measured. […] Finally, the Triton solution was added, centrifugation was performed, the supernatant was removed, the cells were redistributed into 200 μL of the Triton solution and analyzed by using a FACSCalibur instrument from BD Bioscience, and the results were quantitatively analyzed by using the FlowJo program from Tree Star, Inc.

## COc1ccc(CC2=CN(c3ccc(C(=O)NC[C@H]4CCCO4)cc3[N+](=O)[O-])[C@H](C(C)C)C(=O)N2Cc2ccc(O)cc2)cc1 [Formula 1, 4-((R)-4-(4-hydroxybenzyl)-2-isopropyl-5-(4-methoxybenzyl)-3-oxo-3,4-dihydropyrazin-1 (2H)-yl)-3-nitro-N-(((R)-tetrahydrofuran-2-yl)methyl)benzamide]
[1]
  degree of phosphorylation of TBK1 and IRF3: further increased
STING
  fluorescence labeling intensity of intracellular STING: increased in a concentration-dependent manner
